Results: patent US6888001B2, “Pyridyl ethers and thioethers as ligands for nicotinic acetylcholine receptor and its therapeutic application” (priority 1998, dated 2005)
Like-named read-outs stand apart in the source and are kept apart here.

Columns and labels:
[1] = biological target: T1, α4β2 nAChR (Rattus norvegicus, UniProt P09483+P12390); test: Binding of 3H-cytisine to α4β2 nAChR, crude synaptic membranes; details: for inhibition at 10 µM: read-out: α4β2 % Inhibition at 10 μM
T1 construct: crude synaptic membrane preparations from rat cerebral cortex, striatum and hippocampus; from tissue; host or cells: rat cerebral cortex, striatum and hippocampus (crude synaptic membranes, P2 fraction)
T1 sequence (P09483 31-630): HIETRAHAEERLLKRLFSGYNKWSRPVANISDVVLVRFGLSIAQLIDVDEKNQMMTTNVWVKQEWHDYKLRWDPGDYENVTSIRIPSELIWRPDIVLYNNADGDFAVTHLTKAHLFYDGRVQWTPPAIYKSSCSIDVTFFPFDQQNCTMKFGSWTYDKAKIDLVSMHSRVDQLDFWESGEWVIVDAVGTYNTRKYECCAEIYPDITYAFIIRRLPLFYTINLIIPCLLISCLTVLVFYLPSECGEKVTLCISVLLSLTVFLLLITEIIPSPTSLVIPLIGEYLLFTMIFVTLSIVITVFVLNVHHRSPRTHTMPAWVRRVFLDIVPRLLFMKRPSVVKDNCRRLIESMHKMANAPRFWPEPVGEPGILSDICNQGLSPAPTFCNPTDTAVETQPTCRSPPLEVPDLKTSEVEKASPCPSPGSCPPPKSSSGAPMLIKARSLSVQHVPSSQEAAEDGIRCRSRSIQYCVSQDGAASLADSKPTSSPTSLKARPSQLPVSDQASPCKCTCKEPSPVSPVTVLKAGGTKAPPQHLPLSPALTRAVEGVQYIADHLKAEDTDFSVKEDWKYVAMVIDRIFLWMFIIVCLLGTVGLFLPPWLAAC
T1 sequence (P12390 25-500): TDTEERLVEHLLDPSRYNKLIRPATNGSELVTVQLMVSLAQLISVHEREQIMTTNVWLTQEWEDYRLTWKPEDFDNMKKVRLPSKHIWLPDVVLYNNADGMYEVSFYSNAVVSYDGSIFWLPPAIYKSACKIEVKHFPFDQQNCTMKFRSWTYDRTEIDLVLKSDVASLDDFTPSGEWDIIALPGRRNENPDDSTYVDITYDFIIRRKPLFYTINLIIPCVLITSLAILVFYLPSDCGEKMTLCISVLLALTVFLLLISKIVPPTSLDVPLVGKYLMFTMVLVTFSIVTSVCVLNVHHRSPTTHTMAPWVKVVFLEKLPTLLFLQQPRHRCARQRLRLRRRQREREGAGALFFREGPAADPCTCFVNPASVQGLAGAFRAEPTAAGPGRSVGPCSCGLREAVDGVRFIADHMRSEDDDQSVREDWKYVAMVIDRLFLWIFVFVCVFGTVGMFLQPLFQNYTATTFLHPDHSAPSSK
Experimental: α4β2 Nicotinic Acetylcholine Receptor (α4β2 nAChR)
In Vitro Protocol for Determination of α4β2 nAChR Binding Potencies of Ligands
Binding of ^3H-cytisine to neuronal nicotinic acetylcholine receptors was accomplished using crude synaptic membrane preparations from rat cerebral cortex, striatum and hippocampus. Either fresh or frozen membranes were homogenized in ˜50 volumes of 10 mM HEPES (N-2-Hydroxyethylpiperazine-N′-2-Ethanesulfonic acid, pH 7.4) and centrifuged at 42,000×g. The P2 fraction was resuspended in ˜40 volumes of 10 mM HEPES and centrifuged at 42,000×g. This step was repeated and the P2fraction was resuspended in 25 volumes (e.g. 1 g of original into 25 mL) of a medium comprising Na^+-HEPES buffer (10 mM, pH 7.4), 5 mM MgCl2, 0.01% powdered bovine serum albumin (BSA) and 100 mM NaCl. To initiate the binding reaction, test compound (100 μL), Na-HEPES buffered incubation medium (400 μL), ^3H-cytisine (250 μL) and the suspension of biological membranes (250 μL) were mixed, and then the samples were incubated at 23° C. for 40 minutes. The binding reaction was terminated by filtration using a Brandel Cell Harvester and the amount of bound ^3H-cytisine for each sample was quantitated using a Wallac LKB 1205 Betaplate liquid scintillation counter. All test compounds were screened at 10 μM in quadruplicate. Nonspecific binding was determined using 10 μM (+)-epibatidine to block all binding of ^3H-cytisine to the α4β2 nAChR. The activity of each test compound was calculated as follows. After correcting for nonspecific binding, the percent inhibition of specific binding (total binding minus nonspecific) was calculated. Each active compound was further tested at five concentrations to generate a concentration-inhibition curve. The IC50 values were determined using the Prism (GraphPad Software) nonlinear regression program.

[2] = biological target: T2, α7 nAChR (Rattus norvegicus, UniProt Q05941); test: Binding of 3H-MLA to α7 nAChR, crude synaptic membranes; details: read-out: α7 (% Inh @ 10 uM)
T2 construct: crude synaptic membrane preparations from rat cerebral cortex, striatum and hippocampus; from tissue; host or cells: rat cerebral cortex, striatum and hippocampus (crude synaptic membranes, P2 fraction)
T2 sequence (Q05941 23-502): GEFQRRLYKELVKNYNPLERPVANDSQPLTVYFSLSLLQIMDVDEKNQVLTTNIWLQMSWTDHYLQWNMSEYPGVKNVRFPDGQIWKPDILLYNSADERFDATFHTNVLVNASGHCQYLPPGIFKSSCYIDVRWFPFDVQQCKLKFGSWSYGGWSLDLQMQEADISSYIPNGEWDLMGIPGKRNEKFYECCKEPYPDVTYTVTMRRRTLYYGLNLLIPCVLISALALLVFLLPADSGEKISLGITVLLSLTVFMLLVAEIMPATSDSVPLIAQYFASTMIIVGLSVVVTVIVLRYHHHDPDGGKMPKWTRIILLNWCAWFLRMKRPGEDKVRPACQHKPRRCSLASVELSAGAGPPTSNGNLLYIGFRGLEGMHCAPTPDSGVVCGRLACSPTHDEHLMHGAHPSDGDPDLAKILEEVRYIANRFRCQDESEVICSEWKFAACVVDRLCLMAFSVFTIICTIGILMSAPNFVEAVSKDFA
Experimental: α7 Nicotinic Acetylcholine Receptor (α7nAChR)
In Vitro Protocol for Determination of α7nAChR Binding Potencies of Ligands
Binding of ^3H-MLA (methylcaconitine) to neuronal nicotinic acetylcholine receptors was accomplished using crude synaptic membrane preparations from rat cerebral cortex, striatum and hippocampus. Either fresh or frozen membranes were homogenized in ˜50 volumes of 10 mM HEPES (N-2-Hydroxyethylpiperazine-N′-2-Ethanesulfonic acid, pH 7.4) and centrifuged at 42,000×g. The P2 fraction was resuspended in ˜40 volumes of 10 mM HEPES and centrifuged at 42,000×g. This step was repeated and the P2 fraction was resuspended in 25 volumes (e.g. 1 g of original into 25 mL) of a medium comprised of Na^+-HEPES buffer (10 mM, pH 7.4), 5 mM MgCl2, 0.01% powdered bovine serum albumin (BSA), and 100 mM NaCl. To initiate the binding reaction, test compound (100 μL), Na-HEPES buffered incubation medium (400 μL), ^3H-MLA (250 μL) and the suspension of biological membranes (250 μL) were mixed, and then the samples were incubated at 23° C. for 40 minutes., The binding reaction was terminated by filtration using a Brandel Cell Harvester, and the amount of bound ^3H-MLA for each sample was quantitated using a Wallac LKB 1205 Betaplate liquid scintillation counter. All test compounds were screened at 10 μM in quadruplicate. Nonspecific binding was determined using 10 μM MLA to block all binding of ^3H-MLA to the α7 nAChR. The activity of each test compound was calculated as follows. After correcting for nonspecific binding, the percent inhibition of specific binding (total binding minus nonspecific) was calculated. Each active compound was further tested at five concentrations to generate a concentration-inhibition curve. The IC50 values were determined using the Prism (GraphPad Software) nonlinear regression program.

[3] = 3H-cytisine, rat cerebral cortex, striatum and hippocampus membranes, IC50 from five concentrations, read-out: α4β2

Compound `c1cncc(OC2CNC2)c1` [Example 1, 3-(3-Azetidinyloxy)-pyridine] has an inhibition at 10 µM [1] of 46% and an inhibition at 10 µM [2] of 21%.
`c1cncc(OC2CCNC2)c1` (stereo not drawn) [Example 2, 3-(3-Pyrrolidinyloxy)-pyridine] was tested, and the IC50 [1, 3] was 209 nM and the inhibition at 10 µM [2] was -15%.
`c1cncc(O[C@H]2CCNC2)c1` [Example 3, 3-(3-(S)-Pyrrolidinyloxy)-pyridine] was tested, and the IC50 [1, 3] was 449 nM and the inhibition at 10 µM [2] was 5%.
Work on `c1cncc(O[C@@H]2CCNC2)c1` [Example 4, 3-(3-(R)-Pyrrolidinyloxy)-pyridine] yielded an IC50 [1, 3] of 45 nM and an inhibition at 10 µM [2] of 11%.
In the case of `CN1CC[C@@H](Oc2cccnc2)C1` [Example 5, 3-(1-Methyl-3-(R)-pyrrolidinyloxy)-pyridine], the IC50 [1, 3] is reported as 544 nM and the inhibition at 10 µM [2] is reported as 20%.
`Clc1ccc(O[C@@H]2CCNC2)cn1` [Example 6, 2-Chloro-5-(3-(R)-pyrrolidinyloxy)-pyridine] was tested, and the IC50 [1] was 466 nM and the inhibition at 10 µM [2] was 20%.
For `CN1CCC(Oc2cccnc2)C1` (stereo not drawn) [Example 7, 3-(1-Methyl-3-pyrrolidinyloxy)-pyridine], the IC50 [1, 3] was 92 nM and the inhibition at 10 µM [2] was 22%.
In the case of `CCN1CCC(Oc2cccnc2)C1` (stereo not drawn) [Example 8, 3-(1-Ethyl-3-pyrrolidinyloxy)-pyridine], the inhibition at 10 µM [1] is reported as 71% and the inhibition at 10 µM [2] is reported as 18%.
In the case of `CC(C)N1CCC(Oc2cccnc2)C1` (stereo not drawn) [Example 9, 3-(1-Isopropyl-3-pyrrolidinyloxy)-pyridine], the inhibition at 10 µM [1] is reported as 30% and the inhibition at 10 µM [2] is reported as 19%.
In the case of `c1cncc(OC2CCCNC2)c1` (stereo not drawn) [Example 10, 3-(3-Piperidinyloxy)-pyridine], the IC50 [1, 3] is reported as 204 nM and the inhibition at 10 µM [2] is reported as 19%.
With `c1cncc(O[C@H]2CCCNC2)c1` [Example 11, 3-(3-(S)-Piperidinyloxy)-pyridine] the IC50 [1] was 673 nM and the inhibition at 10 µM [2] was 86%.
In the case of `Clc1ncc(O[C@@H]2CCNC2)cc1Br` [Example 12, 2-Chloro-3-bromo-5-(3-(R)-pyrrolidinyloxy)-pyridine], the IC50 [1, 3] is reported as 94 nM and the inhibition at 10 µM [2] is reported as 11%.
With `N#Cc1ccc(-c2cc(O[C@@H]3CCNC3)cnc2Cl)cc1` [Example 13, 2-Chloro-3-(4-cyano)phenyl-5-(3-(R)-pyrrolidinyloxy)-pyridine] the IC50 [1, 3] was 22 nM and the inhibition at 10 µM [2] was 26%.
Work on `COc1cccc(-c2cc(O[C@@H]3CCNC3)cnc2Cl)c1` [Example 14, 2-Chloro-3-(3-methoxy)phenyl-5-(3-(R)-pyrrolidinyloxy)-pyridine] yielded an IC50 [1, 3] of 58 nM and an inhibition at 10 µM [2] of 33%.
With `C[Si](C)(C)C#Cc1ccc(-c2cc(O[C@@H]3CCNC3)cnc2Cl)cc1` [Example 15, 2-Chloro-3-(4-trimethylsilylethynyl)phenyl-5-(3-(R)-pyrrolidinyloxy)-pyridine] the IC50 [1] was 25 nM and the inhibition at 10 µM [2] was 22%.
